Experimental data taken from article PMC9585577, “Oxyresveratrol and Gnetol Glucuronide Metabolites: Chemical Production, Structural Identification, Metabolism by Human and Rat Liver Fractions, and In Vitro Anti-inflammatory Properties” (Journal of Agricultural and Food Chemistry, 2022).
Read-outs that look alike come from different tables or passages of the source.

Experiments:
human liver S9 fractions = experiment: In vitro glucuronidation by human hepatic S9 fractions; assay type: in vitro ADME; conditions: for Vmax: human S9 0.5 mg/mL
Description: (§1) To study the production of glucuronide metabolites in vitro, human and rat S9 hepatic fractions were used. To ensure that the formation rates of metabolites were linear over the incubation time and at the concentration of protein, a series of preliminary experiments was performed to optimize the reactions.
(§2) Glucuronidation was studied by incubation of human or rat liver S9 fractions (0.5 mg/mL) with ORV or GN at different concentrations (0–3000 μM) in Tris–HCl buffer (50 mM, pH 7.4) in the presence of UDPGA (1 mM), alamethicin (25 μg/mL), and MgCl2 (5 mM). All samples were prepared in Eppendorf tubes in a final volume of 100 μL. After 15 min at 37 °C, 100 μL of methanol (100%) was incorporated to stop the reaction and precipitate the proteins. Finally, samples were centrifuged for 30 min at 14000g and 4 °C, and the supernatants were analyzed by UPLC–DAD–MS. Analysis were carried out using 1290 Infinity UPLC (Agilent Technologies, Courtaboeuf, France). The UPLC system was coupled to an Esquire 3000 Plus ion trap mass spectrometer using an ESI source (Bruker-Daltonics, Billerica, MA, U.S.A.). A total of 2 μL was injected into an Agilent SB-C18 column (1.8 μm, 2.1 × 100 mm). Samples were eluted with solvent A (H2O/0.1% formic acid) and solvent B (acetonitrile/0.1% formic acid) with the following gradient program: 10% B (from 0 to 1.7 min), 10–20% B (from 1.7 to 3.4 min), 20–30% B (from 3.4 to 5.1 min), 30% B (from 5.1 to 7.8 min), 30–35% B (from 7.8 to 9.5 min), 35–60% B (from 9.5 to 11.9 min), 60–100% B (from 11.9 to 15.3 min), 100% B (from 15.3 to 17 min), and 100–10% B (from 17 to 17.3 min). The flow rate was set at 0.4 mL/min, and the UV detector was set at wavelengths of 280 and 320 nm. Total ion chromatograms were obtained using negative mode with a range of m/z 130–1400. The parameters were as follows: capillary voltage, +4 kV; nebulizer pressure, 40 psi; dry gas, 10 L/min; and dry temperature, 365 °C. Data analysis was performed with Bruker Data Analysis 3.2 (Bruker-Daltonics, Billerica, MA, U.S.A.). Metabolite concentrations were quantified with the corresponding standard curve of ORV and GN glucuronides previously obtained by hemisynthesis.
(§3) The kinetic parameters, Km, Vmax, and Ki, were calculated using the GraphPad Prism software (version 6.01) (substrate inhibition as the kinetic model). The data obtained from MTT, NO, ROS, IL-1β, and TNF-α production were subjected to one-way analysis of variance (ANOVA). A comparison between LPS and the different tested concentrations of ORV, GN, and their glucuronide metabolites was performed using Dunnet’s test, and p < 0.05 was considered significant (GraphPad Prism software, version 6.01).
(§4) An important objective of this work was to study the in vitro metabolization of t-ORV and t-GN in rat and human species using S9 hepatic fractions. To this end, both stilbene monomers were incubated (37 °C, 15 min) at different concentrations (0–3000 μM) with human and rat S9 fractions (0.5 mg/mL) in the presence of UDPGA as a co-substrate of phase II enzymes. Then, samples were injected into a HPLC–DAD–MS system to identify and quantify the in vitro generated metabolites.

rat liver S9 fractions = experiment: In vitro glucuronidation by rat hepatic S9 fractions; assay type: in vitro ADME; conditions: for Vmax: rat S9 0.5 mg/mL
Description: as §1, §2, §3, §4

macrophages = system: macrophages; set-up: method as in PMID 24257684; conditions: macrophages ref 37; cited from earlier work
RAW 264.7 cells [1] = experiment: MTT cell viability; assay type: cell-based, murine; conditions: 24 h, 5–200 μM tested
Description: (§5) RAW 264.7 cells were cultured in DMEM containing 10% FBS and maintained in a humidified incubator set at 37 °C with 5% CO2. For all following assays, cells were subcultured at a density of 40 000 cells per well in 96 well culture plates with 200 μL of the above-described culture medium. After 24 h, cells were incubated with ORV, GN, and their glucuronide metabolites (5–200 μM) in RPMI medium supplemented with glutamine (4 mM) in the presence or absence of LPS (0.1 μg/mL) (200 μL final volume per well). For MTT, NO, ROS, IL-1β, and TNF-α (n = 4), each experiment was performed in triplicate separately.
The MTT colorimetric assay was performed to assess the cell viability of cells after being treated with ORV, GN, and their glucuronide metabolites. After 24 h of treatment, RAW 264.7 cells were incubated with 0.5 mg/mL MTT during 3 h at 37 °C. The formazan crystals formed were dissolved with 100 μL of dimethyl sulfoxide (DMSO), and the plate was then incubated in the darkness for 30 min. Finally, the absorbance was measured at 595 nm using a microplate reader (FLUOstar Optima, BMG Labtech).

[2] = system: NO production in LPS-stimulated RAW 264.7 cells; experiment: NO measurement (Griess) in LPS-stimulated macrophages; assay type: cell-based, murine; conditions: for reduction of NO production: 50 μM, versus LPS alone
Description: as §5
After 24 h of treatment of RAW 264.7 cells with ORV, GN, and their glucuronide metabolites, 70 μL of supernatant was mixed with 70 μL of Griess solution. After 15 min in darkness, the absorbance was measured at 550 nm using a microplate reader (FLUOstar Optima, BMG Labtech). A calibration curve of NO2 (0–100 μM) was used for quantification. Data were expressed as NO production (μM) compared to cells treated only with LPS (positive control).

[3] = system: ROS production in LPS-stimulated RAW 264.7 cells; experiment: Intracellular ROS measurement (DCFH2-DA) in LPS-stimulated macrophages; assay type: cell-based, murine
Description: as §5
Generation of intracellular ROS in cells was analyzed using the fluorometric probe DCFH2-DA. After 24 h of treatment with GN, ORV, and their glucuronide metabolites, cells were washed with phosphate-buffered saline (PBS) and then 150 μL of DCFH2-DA (10 μM) was added. After 30 min at 37 °C, the fluorescence intensity was quantified using a microplate reader (FLUOstar Optima, BMG Labtech) with a wavelength of excitation and emission of 485 and 520 nm, respectively. All experiments were performed in darkness. Results were expressed as ROS production (fluorescence intensity expressed as arbitrary units) compared to cells treated only with LPS (positive control).

[4] = system: TNF-α production in LPS-stimulated RAW 264.7 cells; experiment: TNF-α production (ELISA) in LPS-stimulated macrophages; assay type: cell-based, murine; conditions: 24 h
Description: as §5
At 24 h after seeding, RAW 264.7 cells were exposed to LPS (0.1 μg/mL) in the absence or presence of ORV, GN (10 and 50 μM), and their metabolites (50 and 200 μM). After 24 h of exposure, IL-1β and TNF-α concentrations were measured in culture media supernatants by ELISA sandwich assay following the instructions of the manufacturer.

HMC3 cells = system: HMC3 cells; set-up: method as in PMID 32842681; conditions: HMC3 cells ref 8; cited from earlier work
[5] = in vivo, 400 umol/kg; cited from earlier work
[6] = cited from earlier work
RAW 264.7 cells [7] = conditions: cited from earlier work
macrophage cell line = conditions: 100 μM, 18 h incubation ref 6; cited from earlier work
[8] = formation of the glucuronide from ORV
[9] = incubation of parent ORV or GN with human S9, UPLC–DAD–MS
[10] = formation of the glucuronide from GN
[11] = between 25 and 50 μM (summary statement)

SMILES: O=C(O)[C@H]1O[C@@H](Oc2cc(O)ccc2/C=C\c2cc(O)cc(O)c2)[C@H](O)[C@@H](O)[C@@H]1O (relative stereo) [c-ORV-2′G, cis-oxyresveratrol-2′-O-glucuronide]
- metabolite formed/detected in samples (human liver S9 fractions): very low
- metabolite formed/detected in samples (rat liver S9 fractions): very low

SMILES: O=C(O)[C@H]1O[C@@H](Oc2cc(O)cc(/C=C\c3ccc(O)cc3O)c2)[C@H](O)[C@@H](O)[C@@H]1O (relative stereo) [c-ORV-3G, cis-oxyresveratrol-3-O-glucuronide]
- Vmax/Km (human liver S9 fractions): 0.159 ± 0.066 μL min^–1 mg^–1 of protein
- Vmax (human liver S9 fractions; [8]): 13.01 ± 1.04 nmol min^–1 mg^–1 of protein
- Vmax/Km (rat liver S9 fractions): 0.073 ± 0.044 μL min^–1 mg^–1 of protein
- Vmax (rat liver S9 fractions; [8]): 31.34 ± 5.6 nmol min^–1 mg^–1 of protein

SMILES: O=C(O)C1OC(Oc2ccc(C=Cc3cc(O)cc(O)c3)c(O)c2)C(O)C(O)C1O (stereo not shown) [ORV-4′G]
- metabolite formed/detected in samples (human liver S9 fractions; [9]): neither the trans nor the cis form of ORV-4′G was detected
- metabolite formed/detected in samples (rat liver S9 fractions; incubation of parent ORV or GN with rat S9, UPLC–DAD–MS): neither the trans nor the cis form of ORV-4′G was detected

SMILES: O=C(O)[C@H]1O[C@@H](Oc2cc(O)cc(/C=C/c3ccc(O)cc3)c2)[C@H](O)[C@@H](O)[C@@H]1O [resveratrol-3-O-glucuronide]
- cytotoxic effect (macrophages): neither resveratrol-3-O-glucuronide nor resveratrol-4′-O-glucuronide had any cytotoxic effect

SMILES: O=C(O)[C@H]1O[C@@H](Oc2ccc(/C=C/c3cc(O)cc(O)c3)cc2)[C@H](O)[C@@H](O)[C@@H]1O [resveratrol-4′-O-glucuronide]
- cytotoxic effect (macrophages): neither resveratrol-3-O-glucuronide nor resveratrol-4′-O-glucuronide had any cytotoxic effect

SMILES: O=C(O)[C@H]1O[C@@H](Oc2cccc(O)c2/C=C/c2cc(O)cc(O)c2)[C@H](O)[C@@H](O)[C@@H]1O [t-GN-2′G, trans-gnetol-2′-O-glucuronide]
- Vmax (human liver S9 fractions; [10]): 2.48 ± 0.31 nmol min^–1 mg^–1 of protein
- Vmax (rat liver S9 fractions; [10]): 6.88 ± 0.86 nmol min^–1 mg^–1 of protein

SMILES: O=C(O)[C@H]1O[C@@H](Oc2cc(O)cc(/C=C/c3c(O)cccc3O)c2)[C@H](O)[C@@H](O)[C@@H]1O [t-GN-3G, trans-gnetol-3-O-glucuronide]
- metabolite formed/detected in samples (human liver S9 fractions; [9]): very low quantities

SMILES: Oc1cc(O)cc(/C=C/c2ccc(O)cc2O)c1 [t-ORV, trans-2′,3,4′,5-tetrahydroxystilbene]
- ability to metabolize ORV into glucuronides, rats versus humans (sum of Vmax/Km) (rat liver S9 fractions; rat, human, pH 7.4): > 2 fold
- concentration from which toxic (MTT) (RAW 264.7 cells [1]): ≥ 100 µM
- reduction of NO production ([2]; 24 h, LPS 0.1 μg/mL): 27.1%
- concentration from which NO production significantly reduced ([2]; 24 h, LPS 0.1 μg/mL): ≥ 10 µM
- decrease of NO production [2, 11]: more than 50%
- reduction of ROS ([3]; 50 μM, 24 h, LPS 0.1 μg/mL): more than 70%
- decrease of ROS production [3, 11]: more than 50%
- reduction of TNF-α ([4]; 50 μM): 30%
- concentration from which toxic (HMC3 cells): ≥ 80 µM
- total bioavailability [5]: 9.1-15.2%
- AUC0–t ([6]; rat, in vivo, po): 5133 μg h L^–1
- concentration in plasma ([6]; rats, oral administration of ORV 100 mg/kg ref 19): ~10 µM
- IC30 for cell cytotoxicity (RAW 264.7 cells [7]): higher than 50 μM
- cytotoxic effect (macrophage cell line): did not observe any cytotoxic effect

SMILES: O=C(O)[C@H]1O[C@@H](Oc2cc(O)ccc2/C=C/c2cc(O)cc(O)c2)[C@H](O)[C@@H](O)[C@@H]1O [t-ORV-2′G, trans-oxyresveratrol-2′-O-glucuronide]
- Vmax (human liver S9 fractions; [8]): 12.93 ± 1.47 nmol min^–1 mg^–1 of protein
- Vmax (rat liver S9 fractions; [8]): 2.67 ± 0.32 nmol min^–1 mg^–1 of protein
- reduction of NO production ([2]; 24 h, LPS 0.1 μg/mL): 29%

SMILES: O=C(O)[C@H]1O[C@@H](Oc2cc(O)cc(/C=C/c3ccc(O)cc3O)c2)[C@H](O)[C@@H](O)[C@@H]1O [t-ORV-3G, trans-oxyresveratrol-3-O-glucuronide]
- Vmax (human liver S9 fractions; [8]): 11.41 ± 2.32 nmol min^–1 mg^–1 of protein
- Vmax (rat liver S9 fractions; [10]): 36 ± 3.57 nmol min^–1 mg^–1 of protein
- Vmax (rat liver S9 fractions; [8]): 319.1 ± 69.77 nmol min^–1 mg^–1 of protein
- reduction of NO production ([2]; 24 h, LPS 0.1 μg/mL): 31%
- reduction of ROS production, at the most ([3]; ORV metabolites, 50–200 μM tested, concentration not given, 24 h, LPS): more than 80%
- reduction of TNF-α ([4]; 200 μM): 70%

SMILES: O=C(O)[C@H]1O[C@@H](Oc2ccc(/C=C/c3cc(O)cc(O)c3)c(O)c2)[C@H](O)[C@@H](O)[C@@H]1O [t-ORV-4′G, trans-oxyresveratrol-4′-O-glucuronide]
- reduction of NO production ([2]; 24 h, LPS 0.1 μg/mL): 27.2%
